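Tested at 5 concentrations; 48 h exposure; 96-well plates; endpoints linearly interpolated, else capped at highest concentration. At the GI50, growth is halved.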 Activity calls are given as the source filed them. No stated cut-off is given here; in the data, active = GI50 up to about 1.1 µM and inactive = higher.
Assays:
Assay in all cases: NCI anticancer screen, dose series, 48 h
M14 = tested on: M14
TK-10 = tested on: TK-10
SN12C = tested on: SN12C
COLO 205 = tested on: COLO 205
KM12 = tested on: KM12
NCI-H522 = tested on: NCI-H522
U-251 = tested on: U-251
786-0 = tested on: 786-0
NCI-H23 = tested on: NCI-H23
HT-29 = tested on: HT-29
CCRF-CEM = tested on: CCRF-CEM
UACC-62 = tested on: UACC-62
HL-60 = tested on: HL-60
SK-OV-3 = tested on: SK-OV-3
Malme-3M = tested on: Malme-3M
UO-31 = tested on: UO-31
A498 = tested on: A498
RPMI-8226 = tested on: RPMI-8226
SNB-75 = tested on: SNB-75
SF-295 = tested on: SF-295

Compound	GI50 (M14)	GI50 (TK-10)	GI50 (SN12C)	GI50 (COLO 205)	GI50 (KM12)	GI50 (NCI-H522)	GI50 (U-251)	GI50 (786-0)	GI50 (NCI-H23)	GI50 (HT-29)	GI50 (CCRF-CEM)	GI50 (UACC-62)	GI50 (HL-60)	GI50 (SK-OV-3)	GI50 (Malme-3M)	GI50 (UO-31)	GI50 (A498)	GI50 (RPMI-8226)	GI50 (SNB-75)	GI50 (SF-295)
NNC(=O)N/N=C1\CNC(=O)C(=O)C1c1nc2ccccc2s1 (stereo not given)	> 100 µM (inactive)	> 100 µM (inactive)	> 100 µM (inactive)	> 100 µM (inactive)	> 100 µM (inactive)	> 100 µM (inactive)	> 100 µM (inactive)	> 100 µM (inactive)	> 100 µM (inactive)	> 100 µM (inactive)	> 100 µM (inactive)	> 100 µM (inactive)	> 100 µM (inactive)	> 100 µM (inactive)	> 100 µM (inactive)	> 100 µM (inactive)	> 100 µM (inactive)	> 100 µM (inactive)	> 100 µM (inactive)	> 100 µM (inactive)
Cc1cccc(C(C)C)c1NC(=O)CCl	65.8 µM (inactive)	> 10 µM (inactive)	56.2 µM (inactive)	86.9 µM (inactive)	55.7 µM (inactive)	15.3 µM (inactive)	40.7 µM (inactive)	53.8 µM (inactive)	22.9 µM (inactive)	49.1 µM (inactive)	30.5 µM (inactive)	24.4 µM (inactive)	39.9 µM (inactive)	67.8 µM (inactive)	81.7 µM (inactive)	> 100 µM (inactive)	> 100 µM (inactive)	86.7 µM (inactive)	33.7 µM (inactive)	92 µM (inactive)
CN(CCCCN1CCCC1)CCCCN(C)C(=O)Cc1ccc(Cl)c(Cl)c1	17.2 µM (inactive)	18.2 µM (inactive)	19.1 µM (inactive)	7.8 µM (inactive)	13.1 µM (inactive)	11.5 µM (inactive)	13.6 µM (inactive)	12.3 µM (inactive)	17.9 µM (inactive)	3.85 µM (inactive)	6.22 µM (inactive)	3.66 µM (inactive)	17.5 µM (inactive)	23.6 µM (inactive)	17.9 µM (inactive)	1.71 µM (inactive)	17.1 µM (inactive)	5.33 µM (inactive)	15 µM (inactive)	19.5 µM (inactive)
c1ccc2nc(CCC3CCCCN3)ccc2c1 (stereo not given)	> 100 µM (inactive)	> 100 µM (inactive)	> 100 µM (inactive)	16.7 µM (inactive)	> 100 µM (inactive)	40.6 µM (inactive)	> 100 µM (inactive)	> 100 µM (inactive)	72.9 µM (inactive)	> 100 µM (inactive)	83.2 µM (inactive)	> 100 µM (inactive)	67.9 µM (inactive)	> 100 µM (inactive)	91.4 µM (inactive)	78.3 µM (inactive)	77.6 µM (inactive)	39.9 µM (inactive)	92.3 µM (inactive)	53 µM (inactive)
O=[N+]([O-])c1ccc2c(c1)Nc1c3ccccc3nc3cccc-2c13	3.21 µM (inactive)	5.38 µM (inactive)	11.3 µM (inactive)	2.68 µM (inactive)	3.57 µM (inactive)	3.44 µM (inactive)	3.18 µM (inactive)	1.02 µM (active)	4.85 µM (inactive)	3.1 µM (inactive)	1.84 µM (inactive)	4.16 µM (inactive)	1.32 µM (inactive)	2.04 µM (inactive)	2 µM (inactive)	5.65 µM (inactive)	34.5 µM (inactive)	4.49 µM (inactive)	3.61 µM (inactive)	0.482 µM (active)
